{
  "source": "patent US12385013B2",
  "about": "“Differentiation of pancreatic endocrine cells” (Vertex Pharmaceuticals Incorporated, priority 2020, dated 2025)",
  "key": {"[1]": {"target": "EZH2 (Homo sapiens, UniProt Q15910)", "sequence (Q15910 whole entry, species assumed)": "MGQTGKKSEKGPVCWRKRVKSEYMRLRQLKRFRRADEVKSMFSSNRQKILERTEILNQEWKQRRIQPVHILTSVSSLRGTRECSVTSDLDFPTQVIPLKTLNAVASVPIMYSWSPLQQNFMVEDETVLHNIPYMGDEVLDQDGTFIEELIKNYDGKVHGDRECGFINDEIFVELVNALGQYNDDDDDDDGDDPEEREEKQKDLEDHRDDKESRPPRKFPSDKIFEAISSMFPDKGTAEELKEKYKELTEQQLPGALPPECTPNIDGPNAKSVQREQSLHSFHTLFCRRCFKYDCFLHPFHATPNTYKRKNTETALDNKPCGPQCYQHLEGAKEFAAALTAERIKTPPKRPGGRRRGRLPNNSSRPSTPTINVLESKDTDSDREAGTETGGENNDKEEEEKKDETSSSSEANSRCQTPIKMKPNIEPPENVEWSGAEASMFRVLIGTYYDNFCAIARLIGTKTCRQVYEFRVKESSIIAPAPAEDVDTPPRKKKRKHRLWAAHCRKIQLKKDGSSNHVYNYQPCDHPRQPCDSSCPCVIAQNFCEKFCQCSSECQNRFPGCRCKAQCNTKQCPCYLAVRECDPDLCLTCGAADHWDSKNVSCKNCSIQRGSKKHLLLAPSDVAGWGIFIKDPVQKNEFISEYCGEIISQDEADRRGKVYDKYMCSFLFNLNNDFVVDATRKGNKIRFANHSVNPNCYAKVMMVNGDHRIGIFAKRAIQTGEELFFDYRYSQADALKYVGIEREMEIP", "sequence (O75530 whole entry partner, species assumed)": "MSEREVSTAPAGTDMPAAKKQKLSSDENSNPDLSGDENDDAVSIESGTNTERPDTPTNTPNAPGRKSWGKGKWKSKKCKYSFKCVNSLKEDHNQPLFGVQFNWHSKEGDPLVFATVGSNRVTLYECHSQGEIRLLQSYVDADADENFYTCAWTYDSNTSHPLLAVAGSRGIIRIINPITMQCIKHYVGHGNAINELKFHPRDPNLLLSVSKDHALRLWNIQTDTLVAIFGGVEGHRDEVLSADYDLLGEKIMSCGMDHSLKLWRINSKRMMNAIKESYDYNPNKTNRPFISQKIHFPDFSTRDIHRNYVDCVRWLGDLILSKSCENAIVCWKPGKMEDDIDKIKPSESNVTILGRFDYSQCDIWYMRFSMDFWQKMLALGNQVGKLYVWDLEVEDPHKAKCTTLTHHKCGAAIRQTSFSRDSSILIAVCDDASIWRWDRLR", "sequence (Q15022 whole entry partner, species assumed)": "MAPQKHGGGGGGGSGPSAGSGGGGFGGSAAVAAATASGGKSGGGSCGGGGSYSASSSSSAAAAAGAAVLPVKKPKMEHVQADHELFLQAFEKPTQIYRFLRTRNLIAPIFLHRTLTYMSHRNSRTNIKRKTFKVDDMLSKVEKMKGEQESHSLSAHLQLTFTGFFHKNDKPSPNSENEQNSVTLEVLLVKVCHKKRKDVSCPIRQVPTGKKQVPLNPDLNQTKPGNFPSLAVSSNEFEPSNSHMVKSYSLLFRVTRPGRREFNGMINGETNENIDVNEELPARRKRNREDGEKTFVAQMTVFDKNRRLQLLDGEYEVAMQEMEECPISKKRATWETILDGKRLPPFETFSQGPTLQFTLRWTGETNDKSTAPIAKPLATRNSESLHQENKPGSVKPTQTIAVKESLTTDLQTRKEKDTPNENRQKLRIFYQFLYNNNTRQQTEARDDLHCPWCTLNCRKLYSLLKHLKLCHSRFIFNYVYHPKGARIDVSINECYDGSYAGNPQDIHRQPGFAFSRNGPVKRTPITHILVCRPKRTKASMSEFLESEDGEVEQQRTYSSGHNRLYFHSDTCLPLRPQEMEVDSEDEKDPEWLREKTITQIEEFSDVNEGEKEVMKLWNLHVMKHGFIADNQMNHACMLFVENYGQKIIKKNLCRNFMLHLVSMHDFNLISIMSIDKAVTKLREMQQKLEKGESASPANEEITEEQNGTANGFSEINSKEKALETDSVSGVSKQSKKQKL", "details": "cited from earlier work"}, "[2]": {"tested_on": "S5c cells differentiated from human stem cells", "assay": "Flow cytometry of NKX6.1/ISL1 at S5c", "format": "cell-based", "details": "for effect on alpha cells (ISL1-positive/NKX6.1-negative) / effect on sc-EC cells (NKX6.1-positive/ISL-negative): PDBU 0.5 μM or TPPB 0.1 μM on S4d5, S5d1, S5d2", "description": "In one experiment, effect of application of PDBU and gamma secretase inhibitor, XXI, was tested. In this experiment, three differentiation conditions were examined and compared: Version A protocol; Version B; Version B+XXI (both PDBU and XXI was applied from S4d5 to S5d2, and XXI continued to be applied throughout S5). FIG. 10B summarizes the percentages of ISL1-positive cells and ISL1-negative cells at S5c generated via different protocols, as measured by flow cytometry (exemplified in FIG. 10A). As shown in the figure, combined PKC activation and gamma secretase inhibition starting during S4 led to robust induction of ISL1-positive cells from about 65% to higher than 90%, whereas PKC activation alone led to about 80% ISL1-positive cells.\n(§1) In another experiment, the effect of two different PKC activators on enterochromaffin cells and alpha cells was examined. In this experiment, three differentiation conditions were examined and compared: Version A protocol; Version A with PDBU applied at 0.5 μM on days S4d5, S5d1, and S5d2 (VA+PDBU); and Version A with ((2S,5S)-(E,E)-8-(5-(4-(Trifluoromethyl)phenyl)-2,4-pentadienoylamino)benzolactam) at 0.1 μM on days S4d5, S5d1, and S5d2 (VA+TPPB). FIG. 11B summarizes the percentages of NKX6.1-positive/ISL-negative cells and ISL1-positive/NKX6.1-negative cells at S5c generated via the different protocols, as measured by flow cytometry (exemplified in FIG. 11A)."}, "[3]": {"tested_on": "cells differentiated from human stem cells", "assay": "Yield of total cells", "format": "cell-based", "description": "as §1"}, "[4]": {"tested_on": "S6d13 cells", "assay": "In vitro glucose-stimulated insulin secretion response", "format": "cell-based, human", "description": "In one experiment, in vitro glucose-stimulated insulin secretion response of S6d13 cells generated by Version A and Version B protocols was examined."}, "[5]": {"tested_on": "Stage 6 cells differentiated from human stem cells", "assay": "Flow cytometry of Stage 6 endocrine cell populations (C-peptide/VMAT1, GCG/SST)", "format": "cell-based", "description": "(§2) Both Version A and Version B protocols are 6-stage stepwise protocols that share similar reagents and treatment timing. With Version A protocols, stem cells were treated with reagents in the following consecutive orders during the first five stages: Stage 1 (S1), Activin-A for 3 days and also CHIR99021 for the first 24 hr; Stage 2 (S2), KGF for 3 days; Stage 3 (S3), KGF, PDBU, Sant-1, retinoic acid (RA), Activin A, and Thiazovivin for 2 days, and also DMH-1 for the first day; Stage 4 (S4), KGF, Sant-1, Thiazovivin, Activin A, and RA for 6 days; Stage 5 (S5), XXI, Alk5i, GC-1, LDN-193189, Thiazovivin, Staurosporine, and DZNEP for 7 days, and also RA, Sant-1, and Betacellulin for the first 2 days. In Version B protocols, one difference from Version A protocols is that the cells were supplemented with PDBU from day 5 of Stage 4 (S4d5) to day 2 of Stage 5 (S5d2). In one experiment, 500 nM of PDBU was used to treat the cells during S4d5 to S5d2.\nIn one experiment, four different exemplary Stage 6 treatment paradigms were also tested at S6 in combination with the first five stages of Version A or Version B protocols. Briefly, i) with S6-a paradigm, S5c cells were cultured in DMEM/F12 medium containing 1% HSA for 7-14 days; ii) with S6-b paradigm, S5c cells were cultured in MCDB131 medium containing 0.05% HSA and the following supplements (per 1 L MCDB131): 0.44 g Glucose, 1.23 g NaHCO3, 0.044 g Vitamin C, 10 ml Glutamax, and 5 ml ITS-x; iii) with S6-c paradigm, S5c cells were cultured in MCDB131 medium containing 0.05% HSA and vitamin C for 7-14 days, during which the cells were treated with 10 μM Alk5i, 1 μM GC-1, 100 nM LDN-193189, 2.5 μM Thiazovivin, 3 nM SSP, and 100 nM DZNEP for the first four days; iv) with S6-d paradigm, S5c cells were cultured in MCDB131 medium (no glutamine base media) containing 0.05% HSA, ITS-X, vitamin C, and 4 mM Gln, as well as […] Alk5i, 1 μM GC-1, 100 nM LDN-193189, 2.5 μM Thiazovivin, 3 nM SSP, and 100 nM DZNEP, for four days, followed by culturing in MCDB131 medium (no glutamine base media) containing 0.05% HSA, ITS-X, vitamin C, and 4 mM Gln with no additional factors for additional 3-10 days.\nAs shown in the figure, with Version A protocols, the percentage of C-peptide-positive, VMAT1-negative cells on S6d9 or S6d14 were all around 35%, except for VA/S6-a and VA/S6-d on S6d9 (both around 40%), whereas with Version B protocols, the percentage of C-peptide-positive, VMAT1-negative cells was from 45% to 55% on S6d9, and around 45% on S6d14."}, "[6]": {"tested_on": "S5c cells differentiated from human stem cells", "assay": "Single-cell RNA sequencing of S5c cells after stem cell differentiation", "format": "cell-based", "details": "compared to Version A protocol, PDBU S4d5 to S5d2", "description": "as §2"}, "[7]": {"tested_on": "Stage 6 cells differentiated from human stem cells", "assay": "Insulin content of generated cells", "format": "cell-based", "details": "comparison between protocols"}, "[8]": {"tested_on": "S5c cells differentiated from human stem cells", "assay": "SOX9 expression at the end of S5", "format": "cell-based", "details": "compared to Version A protocols"}},
  "data": [
    {"smiles": "CC[C@H](C)n1cc(C)c2c(C(=O)NCc3c(C)cc(C)[nH]c3=O)cc(-c3ccc(N4CCNCC4)nc3)cc21", "note": "[GSK126]", "values": [
      {"measurement": "selectivity for EZH2 over EZH1", "setting": "[1]", "value": 150, "unit": "fold"}
    ]},
    {"smiles": "CCCc1cc(C)[nH]c(=O)c1CNC(=O)c1cc(-c2ccc(N3CCN(C(C)C)CC3)nc2)cc2c1cnn2C(C)C", "note": "[UNC1999]", "values": [
      {"measurement": "selectivity relative to GSK126", "setting": "[1]", "value": "less selective"}
    ]},
    {"smiles": "CC(C)[C@H]1C(=O)N[C@H](CO)Cc2cc(NC(=O)/C=C/C=C/c3ccc(C(F)(F)F)cc3)ccc2N1C", "note": "[VA/TPPB, ((2S,5S)-(E,E)-8-(5-(4-(Trifluoromethyl)phenyl)-2,4-pentadienoylamino)benzolactam)]", "values": [
      {"measurement": "effect on alpha cells (ISL1-positive/NKX6.1-negative)", "setting": "[2]", "value": "increasing alpha cells"},
      {"measurement": "effect on sc-EC cells (NKX6.1-positive/ISL-negative)", "setting": "[2]", "value": "similarly effective as VA/PDBU at reducing sc-EC cells"},
      {"measurement": "increase in yield of total cells as compared to VA/PDBU", "setting": "[3]; TPPB 0.1 μM on S4d5, S5d1, S5d2", "value": "more than 2 fold"}
    ]},
    {"smiles": "C[C@H](NC(=O)Cc1cc(F)cc(F)c1)C(=O)N[C@H]1N=C(c2ccccc2)c2ccccc2N(C)C1=O", "note": "[XXI]", "values": [
      {"measurement": "cell yield", "setting": "[3]; XXI added to VA/TPPB at days S4d5, S5d1, S5d2", "value": "reduction in in cell yield"}
    ]},
    {"smiles": "CCCC(=O)O[C@@H]1[C@@H](C)[C@@]2(O)[C@@H](C=C(CO)C[C@]3(O)C(=O)C(C)=C[C@@H]23)[C@@H]2C(C)(C)[C@]12OC(=O)CCC", "note": "[Version B, phorbol 12,13-dibutyrate]", "values": [
      {"measurement": "insulin secretion in response to 20 mM glucose challenge as compared to 2.8 mM glucose challenge", "setting": "[4]", "value": "no clear increase in insulin secretion"},
      {"measurement": "responsiveness to glucose challenges (GSIS)", "setting": "[4]", "value": "relatively low responsiveness to glucose challenges"},
      {"measurement": "percentage of EC cells (VMAT1+/C-peptide−)", "setting": "[5]; S6d9", "value": "less than 20%"},
      {"measurement": "percentage of δ cells (SST+/GCG−)", "setting": "[5]; S6d9, listed as vB/S6-a", "value": "around 5%"},
      {"measurement": "percentage of δ cells (SST+/GCG−)", "setting": "[5]; S6d9, listed as vB/S6-b", "value": "around 7%"},
      {"measurement": "percentage of δ cells (SST+/GCG−)", "setting": "[5]; S6d9, listed as vB/S6-d", "value": "around 8%"},
      {"measurement": "percentage of C-peptide-positive, VMAT1-negative cells", "setting": "[5]; S6d14", "value": "around 45%"},
      {"measurement": "percentage of EC cells (VMAT1+/C-peptide−)", "setting": "[5]; S6d14", "value": "less than 20%"},
      {"measurement": "percentage of α cells (GCG+/SST−)", "setting": "[5]; S6d14, listed as vB/S6-a", "value": "around 22%"},
      {"measurement": "percentage of δ cells (SST+/GCG−)", "setting": "[5]; S6d14, listed as vB/S6-a", "value": "around 5%"},
      {"measurement": "percentage of α cells (GCG+/SST−)", "setting": "[5]; S6d14, listed as vB/S6-b", "value": "around 22%"},
      {"measurement": "percentage of δ cells (SST+/GCG−)", "setting": "[5]; S6d14, listed as vB/S6-b", "value": "around 5%"},
      {"measurement": "percentage of α cells (GCG+/SST−)", "setting": "[5]; S6d14, listed as vB/S6-c", "value": "around 15%"},
      {"measurement": "percentage of α cells (GCG+/SST−)", "setting": "[5]; S6d14, listed as vB/S6-d", "value": "around 15%"},
      {"measurement": "percentage of δ cells (SST+/GCG−)", "setting": "[5]; S6d14, listed as vB/S6-d", "value": "around 8%"},
      {"measurement": "percentage of cells expressing CHGA", "setting": "[6]", "value": "comparable percentage"},
      {"measurement": "percentage of cells expressing DDC (marker of enterochromaffin cells)", "setting": "[6]", "value": "much reduced percentage"},
      {"measurement": "percentage of cells expressing ISL1", "setting": "[6]", "value": "comparable percentage"},
      {"measurement": "insulin content in cells", "setting": "[7]", "value": "comparable"},
      {"measurement": "cells expressing SOX9", "setting": "[8]", "value": "increased cells expressing SOX9"},
      {"measurement": "effect on alpha cells (ISL1-positive/NKX6.1-negative)", "setting": "[2]", "value": "increasing alpha cells"},
      {"measurement": "effect on sc-EC cells (NKX6.1-positive/ISL-negative)", "setting": "[2]", "value": "reducing sc-EC cells"},
      {"measurement": "percentage of ISL1-positive cells", "setting": "[2]; Version A about 65%", "value": "about 80%"}
    ]}
  ]
}
